Counter-ions that a name gives are not always drawn.
Columns and labels:
[1] = molecular target: T1, D3 (Homo sapiens, UniProt P35462); assay: Binding to dopaminergic receptors in cell cultures, displacement of [3H]-spiperone, D3; details: CHO or NM9D cell membranes; [3H]-spiperone 0.3 nM; non specific (+)-butaclamol 1 μM; Cheng and Prusoff; read-out: Receptor binding (Ki nM) D3
T1 construct: expressed in transfected cells; host or cells: CHO or murine mesencephalic neuronal NM9D (sic)
Protocol: (§1) Test for evaluating the bindings to dopaminergic receptors in cell cultures
(§2) Chinese hamster ovary cells (CHO) transfected with dopaminergic receptor subtypes and murine mesencephalic neuronal (NM9D) expressing the different subtypes of such receptors were used. The cell lines were grown on Petri dishes, in a mixture of DMEM and Ham's F12 medium 1:1 supplemented with 10% foetal bovine serum (FBS), penicillin, streptomycin, geneticin (500 μg/ml) and glutamin in a humidified 5% CO2 atmosphere at 37° C. When cells reached confluence they were washed with 10 ml of PBS (KCl 2.68 mM, KH2 PO4 1.4 mM, NaCl […] and Na2 HPO4 6.4 mM) then 5 ml of lysis buffer (Tris-HCl 10 mM and EDTA 5 mM) were added to each Petri. Cells were scrapped and the solution centrifuged for 20 minutes at 48,000 gravity, 4° C. The pellet was suspended in a minimal amount of lysis buffer and homogenised for 15 seconds. […] Saturation curves were analysed using Ligand® program to have Kd (dissociation constant) and Bmax (number of receptors/mg of protein) (Munson and Rodbar, 1980Anal. Biochem., 107, 220-239). […]
(§3) The compounds of the invention were tested at increasing concentrations for evaluating their binding to the various receptors, expressed as Ki (affinity constant) obtained through the Cheng and Prusoff equation

[2] = molecular target: T2, D2s (Homo sapiens, UniProt P14416); assay: Binding to dopaminergic receptors in cell cultures, displacement of [3H]-spiperone, D2s; details: CHO or NM9D cell membranes; [3H]-spiperone 0.1 nM; non specific (+)-butaclamol 1 μM; Cheng and Prusoff; read-out: Receptor binding (Ki nM) D2s
T2 construct: expressed in transfected cells; host or cells: CHO or murine mesencephalic neuronal NM9D (sic)
Protocol: as §1, §2, §3

[3] = molecular target: T3, D1 (Homo sapiens, UniProt P21728); assay: Binding to dopaminergic receptors in cell cultures, displacement of [3H]-SCH23390, D1; details: CHO or NM9D cell membranes; [3H]-SCH23390 0.2 nM; non specific (-)cis-flupenthixol 1 μM; Cheng and Prusoff; read-out: Receptor binding (Ki nM) D1
T3 construct: expressed in transfected cells; host or cells: CHO or murine mesencephalic neuronal NM9D (sic)
Protocol: as §1, §2, §3

[4] = molecular target: T4, D4 (Homo sapiens, UniProt P21917); assay: Binding to dopaminergic receptors in cell cultures, displacement of [3H]-spiperone, D4; details: CHO or NM9D cell membranes; [3H]-spiperone 0.2 nM; non specific (+)-butaclamol 1 μM; Cheng and Prusoff; read-out: Receptor binding (Ki nM) D4
T4 construct: expressed in transfected cells; host or cells: CHO or murine mesencephalic neuronal NM9D (sic)
T4 sequence (P21917 1-419): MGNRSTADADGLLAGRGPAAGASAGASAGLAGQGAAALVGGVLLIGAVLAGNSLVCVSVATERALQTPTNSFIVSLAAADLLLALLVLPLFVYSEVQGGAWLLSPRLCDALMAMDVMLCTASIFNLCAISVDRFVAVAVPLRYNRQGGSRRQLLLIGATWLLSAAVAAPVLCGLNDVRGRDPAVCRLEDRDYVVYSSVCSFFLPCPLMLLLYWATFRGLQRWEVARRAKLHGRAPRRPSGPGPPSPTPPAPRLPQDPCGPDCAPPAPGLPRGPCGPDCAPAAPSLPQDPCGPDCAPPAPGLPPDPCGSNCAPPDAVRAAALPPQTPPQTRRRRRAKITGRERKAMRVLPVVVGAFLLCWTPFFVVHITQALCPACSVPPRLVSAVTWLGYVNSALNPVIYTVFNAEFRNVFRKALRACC
Protocol: as §1, §2, §3

[5] = molecular target: T5, D5 (Homo sapiens, UniProt P21918); assay: Binding to dopaminergic receptors in cell cultures, displacement of [3H]-SCH23390, D5; details: CHO or NM9D cell membranes; [3H]-SCH23390 0.2 nM; non specific (-)cis-flupenthixol 1 μM; Cheng and Prusoff; read-out: Receptor binding (Ki nM) D5
T5 construct: expressed in transfected cells; host or cells: CHO or murine mesencephalic neuronal NM9D (sic)
Protocol: as §1, §2, §3

T3 sequence (P21728 whole entry): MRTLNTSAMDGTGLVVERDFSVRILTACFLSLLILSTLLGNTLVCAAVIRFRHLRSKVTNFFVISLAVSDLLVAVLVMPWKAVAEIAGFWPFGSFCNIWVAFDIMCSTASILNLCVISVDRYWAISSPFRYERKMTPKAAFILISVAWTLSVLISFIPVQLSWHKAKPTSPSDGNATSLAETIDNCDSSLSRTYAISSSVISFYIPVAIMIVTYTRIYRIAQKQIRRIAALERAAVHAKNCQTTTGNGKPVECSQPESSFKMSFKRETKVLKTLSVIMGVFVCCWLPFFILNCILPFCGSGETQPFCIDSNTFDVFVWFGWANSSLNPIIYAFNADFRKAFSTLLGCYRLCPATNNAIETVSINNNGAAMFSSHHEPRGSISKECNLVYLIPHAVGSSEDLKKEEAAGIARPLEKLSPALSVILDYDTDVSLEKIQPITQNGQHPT
T1 sequence (P35462 whole entry): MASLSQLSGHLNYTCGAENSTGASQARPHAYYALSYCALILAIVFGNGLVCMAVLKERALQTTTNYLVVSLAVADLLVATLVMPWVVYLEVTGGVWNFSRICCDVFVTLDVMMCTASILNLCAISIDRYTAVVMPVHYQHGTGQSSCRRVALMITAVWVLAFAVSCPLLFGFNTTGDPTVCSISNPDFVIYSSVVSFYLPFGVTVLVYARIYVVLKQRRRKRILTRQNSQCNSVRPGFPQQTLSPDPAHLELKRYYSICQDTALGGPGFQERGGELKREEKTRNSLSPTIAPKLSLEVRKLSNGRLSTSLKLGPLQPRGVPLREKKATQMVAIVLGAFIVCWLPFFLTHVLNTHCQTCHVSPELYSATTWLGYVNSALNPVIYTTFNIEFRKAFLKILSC
T2 sequence (P14416 1-414 isoform P14416-2): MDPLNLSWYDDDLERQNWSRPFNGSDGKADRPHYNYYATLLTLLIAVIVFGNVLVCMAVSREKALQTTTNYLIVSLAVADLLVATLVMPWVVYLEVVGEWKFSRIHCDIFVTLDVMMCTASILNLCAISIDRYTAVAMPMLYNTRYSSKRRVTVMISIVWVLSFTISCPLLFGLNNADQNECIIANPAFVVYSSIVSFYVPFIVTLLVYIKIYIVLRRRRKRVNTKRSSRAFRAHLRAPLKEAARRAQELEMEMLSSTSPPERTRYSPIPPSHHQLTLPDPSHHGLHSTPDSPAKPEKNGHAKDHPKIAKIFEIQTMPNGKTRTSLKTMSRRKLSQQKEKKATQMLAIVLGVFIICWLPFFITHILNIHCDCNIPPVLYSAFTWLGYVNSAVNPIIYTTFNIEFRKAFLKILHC
T5 sequence (P21918 whole entry): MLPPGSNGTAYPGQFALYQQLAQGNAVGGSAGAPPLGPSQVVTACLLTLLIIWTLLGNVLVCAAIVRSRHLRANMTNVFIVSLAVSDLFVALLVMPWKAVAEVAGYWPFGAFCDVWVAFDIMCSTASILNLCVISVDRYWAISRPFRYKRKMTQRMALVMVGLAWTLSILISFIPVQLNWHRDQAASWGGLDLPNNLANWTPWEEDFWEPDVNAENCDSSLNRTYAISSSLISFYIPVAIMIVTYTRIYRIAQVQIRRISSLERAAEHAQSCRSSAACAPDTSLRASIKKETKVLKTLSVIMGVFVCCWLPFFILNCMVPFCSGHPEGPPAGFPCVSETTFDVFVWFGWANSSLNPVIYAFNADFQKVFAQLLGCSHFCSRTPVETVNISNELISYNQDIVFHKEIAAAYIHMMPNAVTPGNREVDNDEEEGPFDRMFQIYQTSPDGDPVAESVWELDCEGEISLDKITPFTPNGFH

`CCCN(CCCCCCNCCc1ccc(S(C)(=O)=O)cc1)[C@H]1CCc2c(ccc3sc(=O)[nH]c23)C1` [Compound 2, (S)-6-N-propyl-N-6-[2-(4-methylsulfonylphenyl)ethylamino]hexylamino-4,5,6,7-tetrahydronaphtho(1,2-d)thiazol-2(3H)-one dihydrochloride] showed a Ki [1] of 92 nM, a Ki [2] of 9440 nM and a Ki [3] of over 10000 nM. For the same compound, the Ki [4] was over 10000 nM and the Ki [5] was 9270 nM.
